This is an account of results in PMC12067350, “Discovery of Thieno[3,2‑b]pyridine-5-carboxamide and 2,3-Difluorobenzamide Negative Allosteric Modulators of Metabotropic Glutamate Receptor Subtype 5” (ACS Medicinal Chemistry Letters, 2025).

Common to all, as to format: in vitro ADME
Series [1] is described as follows: Intrinsic clearance in human liver microsomes. Conditions: for CLint scaled at 0.75 h, 1 µM: pH 7.4, human liver microsomes; for CLhep, human: predicted hepatic clearance from human microsomes.
Series [2] is described as follows: Binding in plasma from rat (equilibrium dialysis). Conditions: fraction unbound. As to the method: (§1) Binding in plasma from rat and human.
(§2) Determination of compounds’ fraction unbound (f u) in plasma from rat and human was conducted in vitro via equilibrium dialysis using HTDialysis membrane plates. Dialysis membranes (four paired strips per HTD assay) were hydrated as described by the manufacturer and inserted into the HTD plate, which was assembled and prepared for sample addition by the dispensing of blank buffer (DPBS, 100 µL/well) into the ‘top half’ of each membrane-split well. Each compound was diluted into plasma from each species (5 µM final concentration), which was aliquoted in triplicate to the ‘bottom half’ of the prepared HTD plate wells. The HTD plate was sealed and incubated for 6 hours at 37 °C. […] Supernatant (60 µL) from each well of the daughter plates was then transferred to the corresponding wells of new daughter plates (96-shallow-well, V bottom) containing water (Milli-Q, 60 µL/well), and the plates were sealed in preparation for LC-MS/MS analysis (see below). fu was calculated as (analyte to IS MS peak area ratio from Trans-buffer side) / (analyte to IS MS peak area ratio from Cis-plasma side). Mean values for each species were calculated from 3 replicates. […]
(§3) Mean values for each species were calculated from 3 replicates.
(In equilibrium dialysis only unbound substance equilibrates across the membrane.)

The target in a further series is T1, CYP3A4 (Homo sapiens, UniProt P08684).
T1 construct: from tissue; host or cells: human liver microsomes
Kind of series: Cytochrome P450 inhibition using human liver microsomes, CYP3A4. Conditions: read-out: CYP 450 IC50, 3A4. On the procedure: (§4) Cytochrome P450 inhibition using Liver Microsomes.
(§5) The ability of compounds to inhibit cytochrome P450s (CYPs) was tested using human liver microsomes and a cocktail of substrates specific for CYP1A2, 2C9, 2D6 and 3A4. Compounds were incubated at 37C in presence of human liver microsomes (0.1 mg/ml) at 30, 10, 3, 1, 0.3 and 0.1 µM. A cocktail of substrate was also added for each CYP tested: phenacetin (10 µM, CYP1A2), diclofenac (5 µM, CYP2C9), dextromethorphan (5 µM, CYP2D6) and midazolam (2 µM, CYP3A4). HLM were also incubated with the control inhibitor miconazole at 3, 1, 0.3, 0.1, 0.03 and 0.01 µM. […]
(§6) The concentrations of CYP-specific metabolites generated at the end of the reaction were quantified by mass spectrometry using standard curves for each metabolite: acetaminophen (CYP1A2), 4-hydroxydiclofenac (CYP2C9), dextrophan (CYP2D6) and 1-hydroxymidazolam (CYP3A4). A concentration response curve for each metabolite was generated and IC50s were calculated using Prism. The LC-MS/MS transitions for metabolite quantifications are as follows. […]
(§7) Prepared samples were injected (10 µL each) onto an AB Sciex Triple Quad 4500 mass spectrometer system with an Agilent 1260 Infinity II pump and autosampler. […] Quantitation of compounds was performed via AB Sciex Multiquant software using the raw analyte:IS peak area ratios. […]
Background: Liver microsomes are a subcellular fraction often used to study metabolism.

The target in another series is T2, CYP2D6 (Homo sapiens, UniProt P10635).
T2 construct: from tissue; host or cells: human liver microsomes
The series is described as follows: Cytochrome P450 inhibition using human liver microsomes, CYP2D6. Particulars: read-out: CYP 450 IC50, 2D6. As to the method:
as §4, §5, §6, §7

A short description of series [3]: Binding in brain homogenate from rat (equilibrium dialysis). Conditions: fraction unbound, rat brain homogenates. As to the method: as §1
as §2, with “wells.” for “wells. The HTD plate was sealed and incubated for 6 hours at 37 °C.”
The diluted fraction unbound (f u2) in brain was calculated as (analyte to IS MS peak area ratio from Trans-buffer side) / (analyte to IS MS peak area ratio from Cis-brain homogenate side). […]
as §3

Another series addresses T3, CYP2C9 (Homo sapiens, UniProt P11712).
T3 construct: from tissue; host or cells: human liver microsomes
The series is described as follows: Cytochrome P450 inhibition using human liver microsomes, CYP2C9. Conditions: read-out: CYP 450 IC50, 2C9.

T1 sequence (P08684 whole entry): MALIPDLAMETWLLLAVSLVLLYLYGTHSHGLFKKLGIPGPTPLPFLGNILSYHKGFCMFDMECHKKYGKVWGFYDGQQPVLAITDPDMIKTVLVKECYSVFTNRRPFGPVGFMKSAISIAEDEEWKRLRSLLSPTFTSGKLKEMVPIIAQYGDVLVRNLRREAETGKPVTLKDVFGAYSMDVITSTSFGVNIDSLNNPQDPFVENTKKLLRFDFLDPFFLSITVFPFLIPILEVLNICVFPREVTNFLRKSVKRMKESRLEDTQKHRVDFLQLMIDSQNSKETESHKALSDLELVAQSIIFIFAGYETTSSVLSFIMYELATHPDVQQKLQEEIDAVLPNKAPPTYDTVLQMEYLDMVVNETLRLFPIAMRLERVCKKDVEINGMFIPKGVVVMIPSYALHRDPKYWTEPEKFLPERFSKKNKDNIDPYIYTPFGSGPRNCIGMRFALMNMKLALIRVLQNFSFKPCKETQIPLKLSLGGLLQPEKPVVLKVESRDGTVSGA
T3 sequence (P11712 whole entry): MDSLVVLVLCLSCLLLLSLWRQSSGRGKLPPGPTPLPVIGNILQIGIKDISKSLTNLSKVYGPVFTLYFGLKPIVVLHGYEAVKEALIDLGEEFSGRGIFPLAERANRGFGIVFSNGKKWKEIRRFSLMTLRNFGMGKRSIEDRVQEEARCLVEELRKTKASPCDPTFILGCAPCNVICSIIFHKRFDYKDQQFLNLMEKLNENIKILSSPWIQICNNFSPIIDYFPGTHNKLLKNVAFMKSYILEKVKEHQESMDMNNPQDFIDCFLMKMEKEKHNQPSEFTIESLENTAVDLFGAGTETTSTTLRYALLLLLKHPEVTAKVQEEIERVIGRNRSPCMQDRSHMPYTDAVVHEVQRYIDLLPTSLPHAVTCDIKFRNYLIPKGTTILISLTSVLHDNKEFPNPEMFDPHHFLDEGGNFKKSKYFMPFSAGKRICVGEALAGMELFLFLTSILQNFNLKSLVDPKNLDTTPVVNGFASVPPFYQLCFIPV
T2 sequence (P10635 whole entry): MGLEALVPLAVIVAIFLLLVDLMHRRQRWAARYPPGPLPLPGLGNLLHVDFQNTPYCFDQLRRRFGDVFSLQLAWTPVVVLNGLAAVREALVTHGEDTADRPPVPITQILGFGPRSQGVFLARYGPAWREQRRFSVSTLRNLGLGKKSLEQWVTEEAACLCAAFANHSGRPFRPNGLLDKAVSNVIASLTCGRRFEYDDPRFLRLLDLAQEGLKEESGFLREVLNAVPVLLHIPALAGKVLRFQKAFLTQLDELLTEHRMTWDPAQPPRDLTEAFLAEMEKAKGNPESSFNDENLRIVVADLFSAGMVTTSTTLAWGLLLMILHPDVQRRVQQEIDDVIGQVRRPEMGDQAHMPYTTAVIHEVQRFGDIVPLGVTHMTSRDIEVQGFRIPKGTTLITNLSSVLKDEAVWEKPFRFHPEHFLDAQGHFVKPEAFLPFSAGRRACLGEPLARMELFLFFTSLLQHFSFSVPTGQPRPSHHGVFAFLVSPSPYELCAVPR

Regarding `Cc1csc(NC(=O)c2cc(O[C@@H]3CCOC3)c3sccc3n2)n1` [19aA], in series [1], the CLint scaled (commonly the capacity of the preparation to metabolise the compound, expressed as a volume cleared per time) at 0.75 h, 1 µM was found to be 140 mL/min/kg. Also, the “CLhep, human” value in series [1] was 18.3 mL/min/kg. In addition, the “rat f u,plasma” value in series [2] is given as 0.027. Also, the half-inhibitory concentration (IC50) on CYP3A4, on CYP2D6 and on CYP2C9 was > 30 µM each time. Further, the “Rat f u,brain” value in series [3] stood at 0.009.

Regarding `Cc1csc(NC(=O)c2cc(O[C@@H]3CCOC3)cc(F)c2F)n1` [27cA], the CLint scaled at 0.75 h, 1 µM in series [1] amounted to 241 mL/min/kg. In series [1], the “CLhep, human” value is recorded as 19.3 mL/min/kg. In series [2], the “rat f u,plasma” value is recorded as 0.040. The IC50 at CYP3A4, at CYP2D6 and on CYP2C9 was > 30 µM in each case. Also, the “Rat f u,brain” value in series [3] came out at 0.051.
